Laboratory results taken from patent US7642369B2, “Epoxyketone-based immunoproteasome inhibitors” (University of Kentucky Research Foundation, priority 2006, dated 2010).
Entries after “also recorded” stand apart in the source; their conditions may differ. Read-outs that look alike come from different tables or passages of the source.

Legend:
[1] = tested on: proteasome subunits LMP7/X and LMP2; assay: Competition screening assay in EL4 cells with biotin-dihydroeponemycin probe, streptavidin-HRP western blot; type: binding, Murine; conditions: for Proteasome subunit binding and specificity, competition against biotin-dihydroeponemycin labelling: EL4 cells, 30 min pre-incubation, 1 hr probe, western blot
Protocol: (§1) Med. Chem. Lett. 9, 3335-3340 (1999) (herein incorporated by reference); and “Towards Immunoproteasome-Specific Inhibitors: An Improved Synthesis of Dihydroeponemycin.” Specifically, various concentrations of these compounds were pre-incubated in EL4 cells at 37° C. for 30 min. […] After cells were lysed, whole cell lysates were analyzed using 12% SDS-PAGE and transferred to PVDF membranes. Biotinylated proteins were then visualized using streptavidin-horseradish peroxidase (HRP) and enhanced chemiluminescence (ECL).
(§2) The western blots were performed using EL4 cells pre-incubated with proteasome inhibitors for 30 min before treating with biotinylated compounds. After 1 hr incubation, cells were lysed, and analyzed by western blot using streptavidin-HRP and ECL.
Similar competition assays were performed to screen for immunoproteasome inhibitors in a EL4 cell model system. EL4 cell system was chosen since these cells highly express catalytic subunits of both the constitutive and immunoproteasomes.
(§3) Cell Culture and Screening Assay: Murine lymphoma EL4 (ATCC) cells were grown in RPMI medium (Gibco), 10% fetal bovine serum and 1% penicillin and streptomycin at […] in a 5% CO2 incubator. […] The cells were then incubated for an additional 1 hour. Cell lysates were analyzed by 12% SDS-PAGE and transferred to PVDF membrane. Proteins that were covalently modified by biotinylated compounds were visualized by enhanced chemiluminescence using streptavidin conjugated horseradish peroxidase (Sigma-Aldrich) or anti-LMP2 (Affinity BioReagents) and Biomax X-ray film (Kodak).

20S regular proteasome = target: T1, 20S regular proteasome (Bos taurus, UniProt Q2TBX6+Q32KL2); assay: Enzyme kinetics: inhibition of chymotrypsin-like activity of purified 20S constitutive (regular) proteasome, fluorogenic substrate Suc-Leu-Leu-Val-Tyr-AMC; type: biochemical, bovine; conditions: for kinact/KI: read-out: Kobs/[I], 20S regular proteasome
T1 construct: purchased Biomol International
Protocol: (§4) Since LMP2 is a major catalytic subunit responsible for chymotrypsin-like activity, inactivation of the LMP2 subunit inhibits proteolytic activity of immunoproteasome. […] Enzyme kinetics experiments were also carried out with the purified 20S constitutive proteasome as control.
(§5) Enzyme kinetics were performed by measuring the chymotrypsin-like activity of 20S immunoproteasome and regular proteasome in the presence of compound 15 using a fluorogenic peptide substrate.
(§6) Enzyme Kinetic Studies: kassociation values were determined as follows. Inhibitors were mixed with a fluorogenic peptide substrate and assay buffer [20 mM Tris (pH 8.0), 0.5 mM EDTA, and 0.035% SDS] in a 96-well plate. The chymotrypsin-like activity was assayed using the fluorogenic peptide substrates Suc-Leu-Leu-Val-Tyr-AMC (Sigma-Aldrich). Hydrolysiswas initiated by the addition of bovine 20S proteasome or immunoproteasome (Biomol International), and the reaction was followed by fluorescence (360-nm excitation/460-nm detection) using a Microplate Fluorescence Reader (FL600; Bio-Tek Instruments, Inc., Winnoski, Vt.) employing the software KC4 v.2.5 (Bio-Tek Instruments, Inc., Winooski, Vt.). Reactions were allowed to proceed for 60-90 min, and fluorescence data were collected every 1 min. Fluorescence was quantified as arbitrary units and progression curves were plotted for each reaction as a function of time. kobserved/[I] values were obtained using PRISM program by nonlinear least squares fit of the data to the following equation: fluorescence=vst+[(v0−vs)/kobserved][1−exp(−kobserved t)], where v0 and vs are the initial and final velocities, respectively, and kobserved is the reaction rate constant. […] Reactions were performed using inhibitor concentrations that were <100-fold of those of the proteasome assayed.

20S immunoproteasome = assay: Enzyme kinetics: inhibition of chymotrypsin-like activity of purified 20S immunoproteasome, fluorogenic substrate Suc-Leu-Leu-Val-Tyr-AMC; type: biochemical, bovine; conditions: for Kobs/[I], 20S immunoproteasome: purified 20S immunoproteasome; for Relative selectivity: immunoproteasome/regular proteasome, normalized against epoxomicin
Protocol: as §4, §5, §6

LMP2 subunit = target: T2, LMP2 subunit (Mus musculus, UniProt O35955+P28076); assay: LMP2 mobility shift in EL4 cells, western blot with anti-LMP2 antibody; type: binding, Murine; conditions: 1 hr at 37° C.; for Covalent modification of LMP2, mobility shift of adduct on SDS PAGE: anti-LMP2 western blot
T2 construct: sufficient to modify LMP2 subunits present in cells; endogenous in cells; host or cells: EL4 murine lymphoma cells (ATCC)
Protocol: The mobility shift of LMP2:15 adduct was investigated to further verify that compound 15 covalently modifies the LMP2 subunit (FIG. 5). After EL4 cells were incubated with compound 15 or assay probes (Biotin-EPX and Biotin-EPN) for 1 hr at 37° C., cells were lysed and boiled for 15 min. Whole cell proteins were then analyzed by western blot using anti-LMP2 antibody.
Since molecular weights of the LMP2 subunit are increased by 828.08 (for biotin-epoxomicin) and 1078.45 (for biotin-dihydroeponemycin), assay probe-LMP2 adducts are expected to show a slower mobility as compared to free LMP2 (lanes 1-3, FIG. 5). […] It can be explained by a smaller molecular weight of compound 15 (484.76) compared to assay probes (828.08 and 1078.45). […] LMP2 inhibitor efficiently blocks the proteolytic activity of immunoproteasome with high specificity. Screening assay and mobility shift studies have shown that compound 15 selectively inactivates the LMP2 subunit via covalent modification. Since LMP2 is a major catalytic subunit responsible for chymotrypsin-like activity, inactivation of the LMP2 subunit inhibits proteolytic activity of immunoproteasome. Confirmation of this is provided by enzyme kinetics studies performed using purified 20S immunoproteasome. Enzyme kinetics experiments were also carried out with the purified 20S constitutive proteasome as control.
as §3

H460 (Lung) = assay: Cell proliferation assay by counting cell numbers after 24 h incubation; type: cell-based; conditions: cell number after 24 h incubation
Protocol: (§7) To compare the efficacy of the present LMP2 inhibitor compounds and, in particular, LMP2 inhibitor 15, as compared to prior known inhibitors, comparative tests were conducted using compound 21 in expressing tumor cells. LMP2 inhibitor compound 21 blocked proliferation of lung cancer H460, prostate cancer cells PC3 and multiple myeloma cells RPMI8226, as summarized in Table 2, below.

PC3 (Prostate) = assay: as above; type: cell-based; conditions: cell number after 24 h incubation
Protocol: as §7

RPMI8226 (MM) = assay: as above; type: cell-based; conditions: cell number after 24 h incubation
Protocol: as §7

WI-38 (Fibroblast) = assay: as above; type: cell-based; conditions: cell number after 24 h incubation
[2] = tested on: proteasome subunits Z, MECL1, LMP7 and X; assay: Competition screening assay in EL4 cells with biotin-epoxomicin probe, streptavidin-HRP western blot; type: binding, Murine; conditions: 30 min pre-incubation, 1 hr probe
Protocol: as §1, §2
Preincubation of EL4 cells with 1 μM of compound 15 (one equivalent of assay probe) was sufficient to selectively modify the catalytic threonine residue of LMP2 subunit, thereby preventing further modification of LMP2 subunit by biotin-dihydroeponemycin, resulting in selective attenuation of LMP2 protein band on western blot.
Cell Culture and Screening Assay: Murine lymphoma EL4 (ATCC) cells were grown in RPMI medium (Gibco), 10% fetal bovine serum and 1% penicillin and streptomycin at […] in a 5% CO2 incubator. […] Cell lysates were analyzed by 12% SDS-PAGE and transferred to PVDF membrane. […]

SMILES: CCCCCCC(=O)N[C@@H](C)C(=O)N[C@@H](CC(C)C)C(=O)[C@@]1(CO)CO1 [Compound 9]
- Proteasome subunit binding and specificity, competition against biotin-dihydroeponemycin labelling [1]: LMP7/X and LMP2 protein bands are competed away

SMILES: CCCCCCC(=O)N[C@@H](CO)C(=O)N[C@@H](CC(C)C)C(=O)[C@@]1(COCOC)CO1 [Compound 11]
- Proteasome subunit binding and specificity, competition against biotin-dihydroeponemycin labelling [1]: do not selectively target proteasome subunits; also recorded: dramatic loss in the potency and specificity compared to dihydroeponemycin

SMILES: CCCCCCC(=O)N[C@@H](CO)C(=O)N[C@@H](CC(C)C)C(=O)[C@@]1(COCOCCOC)CO1 [Compound 12]
- Proteasome subunit binding and specificity, competition against biotin-dihydroeponemycin labelling [1]: selectively targeting the immunoproteasome subunit LMP2; also recorded: high specificity towards LMP2 was achieved

SMILES: CCCCCCC(=O)N[C@@H](C)C(=O)N[C@@H](CC(C)C)C(=O)[C@@]1(CO[Si](C)(C)C(C)(C)C)CO1 [Compound 15]
- Inhibition of chymotrypsin-like activity of 20S regular proteasome (in words) (20S regular proteasome; fluorogenic peptide substrate): poorly inhibited the chymotrypsin-like activity of 20S regular proteasome
- kinact/KI (20S regular proteasome): 49 ± 18 M⁻¹ s⁻¹
- Kobs/[I], 20S immunoproteasome (20S immunoproteasome; chymotrypsin-like activity): 83 ± 27 M^−1S^−1
- higher selectivity toward the 20S immunoproteasome in comparison to dihydroeponemycin (20S immunoproteasome; chymotrypsin-like activity, versus dihydroeponemycin): 5 fold
- higher selectivity toward the 20S immunoproteasome in comparison to epoxomicin (20S immunoproteasome; chymotrypsin-like activity, versus epoxomicin): 24 fold
- Inhibition of chymotrypsin-like activity of 20S immunoproteasome (in words) (20S immunoproteasome; fluorogenic peptide substrate): displayed a better inhibitory activity against the immunoproteasome; also recorded: time- and concentration-dependent inhibition
- Relative selectivity (20S immunoproteasome): 24
- Concentration sufficient to selectively modify the catalytic threonine residue of LMP2 subunit ([1]; EL4 cells preincubated, one equivalent of assay probe (biotin-dihydroeponemycin)): 1 µM
- Proteasome subunit binding and specificity, competition against biotin-dihydroeponemycin labelling [1]: selectively targeting the immunoproteasome subunit LMP2; also recorded: even higher specificity towards the LMP2 subunit was obtained
- Covalent modification of LMP2, mobility shift of adduct on SDS PAGE (LMP2 subunit): covalently modify the immunoproteasome subunit LMP2
- Covalent modification of LMP2, mobility shift of adduct on SDS PAGE (LMP2 subunit; listed as compound 15): slower mobility for the LMP2-15 adduct on SDS PAGE was clearly shown as compared to free LMP2
- Concentration sufficient to modify LMP2 subunits present in cells (LMP2 subunit; mobility shift): 1 µM

SMILES: CC(C)CCCCC(=O)N[C@@H](CO)C(=O)N[C@@H](CC(C)C)C(=O)[C@@]1(CO)CO1 [Dihydroeponemycin, dihydroeponemycin, reference compound]
- kinact/KI (20S regular proteasome; chymotrypsin-like activity, purified 20S constitutive proteasome): 721 ± 84 M⁻¹ s⁻¹
- Kobs/[I], 20S immunoproteasome (20S immunoproteasome; chymotrypsin-like activity): 251 ± 121 M^−1S^−1
- Relative selectivity (20S immunoproteasome): 5
- Proteasome subunit binding and specificity, competition against biotin-dihydroeponemycin labelling [1]: LMP7/X and LMP2 protein bands are competed away; also recorded: do not have specificity towards subunits of either the constitutive or immunoproteasomes

SMILES: CC[C@H](C)[C@H](NC(=O)[C@H]([C@@H](C)CC)N(C)C(C)=O)C(=O)N[C@H](C(=O)N[C@@H](CC(C)C)C(=O)[C@@]1(C)CO1)[C@@H](C)O [Epoxomicin, epoxomicin]
- Kobs/[I], 20S immunoproteasome (20S immunoproteasome; chymotrypsin-like activity): 3,044 ± 1,423 M^−1S^−1
- IC50 (H460 (Lung)): 100 nM
- IC50 (PC3 (Prostate)): 10 nM
- IC50 (RPMI8226 (MM)): 100 nM
- IC50 (WI-38 (Fibroblast)): 28 nM
- Proteasome subunit binding, competition against biotin-epoxomicin labelling [2]: proteasome subunit (Z, MECL1, LMP7 and X) bands are efficiently competed away
- Proteasome subunit binding, competition against biotin-epoxomicin labelling ([2]; listed as epoximicin): do not have specificity towards subunits of either the constitutive or immunoproteasomes
